Columns and labels:
Type in all cases: cell-based
[1] = system: pSTAT3 in HEPG2 (liver cancer) cells induced by IL-6; assay: Inhibition of pSTAT3 (IL-6 induced phosphorylation of STAT3, Phospho-STAT3 (Tyr705) Sandwich ELISA); conditions: Homo sapiens, 4 hours compound, then IL-6 (10 ng/mL) 30 minutes
Method: The experimental drugs were tested for their effect on phosphorylation of STAT3 in HEPG2 (liver cancer) cells induced by IL-6. Test compounds were dissolved in DMSO at 20 mM and diluted in a growth medium at 2× strength. Final DMSO concentration was less than 0.5%. 100 μL of cell suspension (10×10^4 cells/mL) was added to the wells of 96 well plates and allowed to adhere for 24 hours in a CO2 incubator at 37° C. Following overnight incubation, the culture medium was replaced with 100 μL of fresh growth medium and 100 μL of test compound (s), standard (Curcumin) and growth medium (untreated) wells. The plates were incubated in CO2 incubator at 37° C. for 4 hours. After compound treatment, IL-6 (10 ng/mL) was added to the wells and incubated for 30 minutes to induce pSTAT3.
At the end of the 30 minutes incubation, cells were rinsed with ice-cold PBS and lysed with 1× Cell lysis buffer containing 1 mM PMSF (provided in the kit) on ice for 5 minutes. The cells were scraped off and transferred to an appropriate tube, sonicated on ice and centrifuged for 10 minutes at 4° C. The supernatant (cell lysate) was collected and stored at −80° C. and the levels of pSTAT3 were measured in the cell lysate by Path Scan Phospho-STAT3 (Tyr705) Sandwich ELISA kit (Cell Signaling, Cat No. 7300) by following the kit instructions.

[2] = system: HCT 116 (colon), NCIH460 (lung) and U251 (glioma) cell lines; assay: Anti-cancer screen (MTT growth inhibition, 48 hours); conditions: Homo sapiens; HCT 116, NCIH460 and U251 cell lines; MTT after 48 hours of incubation;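 also: mean GI50 across the three cell lines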
Method: The experimental drugs were screened for anti-cancer activity in three cell lines using five concentrations for each compound. The cell lines—HCT 116 (colon), NCIH460 (lung) and U251 (glioma) were maintained in DMEM containing 10% fetal bovine serum. 96-well microtiter plates are inoculated with cells in 100 μL of cell suspension (5×10^4 cells/mL) for 24 hours at 37° C., 5% CO2, 95% air and 100% relative humidity. A separate plate with these cell lines is also inoculated to determine cell viability before the addition of the compounds (T0)
Following 24-hour incubation, test compounds were added to the 96 well plates. Each plate contains one of the above cell lines and the following samples in triplicate: five different dilutions (0.01, 0.1, 1, 10 and 100 μM) of four test compounds, appropriate dilutions of a cytotoxic standard and growth medium (untreated) wells. Test compounds were dissolved in DMSO to prepare 20 mM stock solutions on the day of drug addition and serial dilutions were carried out in complete growth medium at 2× strength, such that 100 μL added to the wells gave final concentrations (0.01, 0.1, 1, 10 and 100 μM) in the well. SAHA was used as the standard drug in these experiments.
For T0 measurement, 24 hours after seeding the cells, 20 μL of 3-(4,5-dimethyl-2-thiazolyl)-2,5-diphenyl-2H-tetrazolium (MTT) solution per well was added to the ‘T0’ plate and incubated for 3 hours at 37° C. in a CO2 incubator. The plate containing cells and test compounds was treated similarly after 48 hours of incubation. After 3 hours of MTT addition, well contents were aspirated carefully followed by addition of 150 μL DMSO per well. Plates were agitated to ensure dissolution of the formazan crystals in DMSO and absorbance was read at 570 nm (A570).
Percent growth (PG) is calculated relative to the control and zero measurement wells (T0) as follows:
PG values are plotted against drug concentration to derive the following: GI50 is the concentration required to decrease PG by 50% vs control; TGI is the concentration required to decrease PG by 100% vs control and LC50 is the concentration required to decrease PG by 50% vs T0. (Mosmann T. Rapid colorimetric assay for cellular growth and survival: application to proliferation and cytotoxicity assays. (J. Immunol. Methods. 1983, 65 (1-2), 55-63; Anne Monks et al); feasibility of high-flux anticancer drug screen using a diverse panel of cultured human tumor cell lines”. (JNCI, Vol. 83, No. 11, 1991). Results for growth inhibition of synthesized compounds are given in Table-1.

[3] = system: IL-6 in supernatant of NCIH 460 cells; assay: Measuring IL-6 in culture supernatants (ELISA); conditions: Homo sapiens, NCI-H460, 5 hours incubation

Row | SMILES | GI50 [2] [µM] | inhibition at 10 µM [1] [%] | inhibition at 10 µM [3] [%]
1 | COc1ccccc1OCCNCC(O)COc1ccc(/C(=C\c2ccc(F)c(F)c2)C(N)=O)cc1 (centres unmarked) [Example 65, 2-{4-[3-(2-Methoxyphenoxyethylamino)-2-hydroxypropoxy]phenyl}-3-(3,4-difluorophenyl)acrylamide] |  | 0 | 
2 | COC(=O)/C(=C/c1ccc(F)c(C)c1)c1ccc(OCC(O)CNCc2ccc(OC)cc2OC)cc1 (centres unmarked) [Example 1, 2-{4-[3-(2,4-dimethoxybenzylamino)-2-hydroxypropoxy]phenyl}-3-(4-fluoro-3-methylphenyl)acrylic acid methyl ester] |  | 22.2 | 
3 | COC(=O)/C(=C/c1ccc(C)s1)c1ccc(OCC(O)CNCCOc2ccccc2OC)cc1 (centres unmarked) [Example 57, 2-{4-[3-(2-Methoxyphenoxyethylamino)-2-hydroxypropoxy]phenyl}-3-(5-methylthiophen-2-yl)acrylic acid methyl ester] |  | 66.5 | 
4 | COC(=O)/C(=C/c1ccc(OCC(O)CNCCOc2ccccc2OC)cc1)c1cccc(F)c1 (centres unmarked) [Example 51, 3-{4-[3-(2-Methoxyphenoxyethylamino)-2-hydroxypropoxy]phenyl}-2-(3-fluorophenyl)acrylic acid methyl ester] |  | 49.9 | 
5 | COC(=O)/C(=C/c1ccc(OCC(O)CNCc2ccc(OC)cc2OC)cc1)c1ccccc1F (centres unmarked) [Example 53, 3-{4-[3-(2,4-Dimethoxybenzylamino)-2-hydroxypropoxy]phenyl}-2-(2-fluorophenyl)acrylic acid methyl ester] |  | 61.4 | 
6 | COc1ccc(CNCC(O)COc2ccc(/C(=C\c3ccc(F)c(F)c3)C(N)=O)cc2)c(OC)c1 (centres unmarked) [Example 64, 2-{4-[3-(2,4-Dimethoxybenzylamino)-2-hydroxypropoxy]phenyl}-3-(3,4-difluorophenyl)acrylamide] |  | 32.2 | 
7 | COC(=O)/C(=C/c1ccc(C)s1)c1ccc(OCC(O)CNCc2ccc(OC)cc2OC)cc1 (centres unmarked) [Example 56, 2-{4-[3-(2,4-Dimethoxybenzylamino)-2-hydroxypropoxy]phenyl}-3-(5-methylthiophen-2-yl)acrylic acid methyl ester] |  | 56.2 | 
8 | COC(=O)/C(=C/c1cc(OC)cc(OC)c1)c1ccc(OCC(O)CNCCOc2ccccc2OC)cc1 (centres unmarked) [Example 5, 2-{4-[3-(2-Methoxyphenoxyethylamino)-2-hydroxypropoxyl]phenyl}-3-(3,5-dimethoxyphenyl)acrylic acid methyl ester] | 3.1 |  | 37
9 | COC(=O)/C(=C/c1cc(OC)cc(OC)c1)c1ccc(OCC(O)CNCc2ccc(OC)cc2OC)cc1 (centres unmarked) [Example 3, 2-{4-[3-(2,4-Dimethoxybenzylamino)-2-hydroxypropoxyl]phenyl}-3-(3,5-dimethoxyphenyl)acrylic acid methyl ester] | 4.1 |  | 67
10 | COC(=O)/C(=C/c1ccccc1)c1ccc(OCC(O)CNCc2ccc(OC)cc2OC)cc1 (centres unmarked) [Example 17, 2-{4-[3-(2,4-Dimethoxybenzylamino)-2-hydroxypropoxy]phenyl}-3-phenylacrylic acid methyl ester] | 3.4 |  | 25
11 | COC(=O)/C(=C/c1cc(OC)c(OC)c(OC)c1)c1ccc(OCC(O)CNCc2ccc(OC(F)F)cc2)cc1 (centres unmarked) [Example 8, 2-{4-[3-(4-Difluoromethoxybenzylamino)-2-hydroxypropoxyl]phenyl}-3-(3,4,5-trimethoxyphenyl)acrylic acid methyl ester] | 3.6 |  | 44
12 | COC(=O)/C(=C/c1cc(OC)c(OC)c(OC)c1)c1ccc(OCC(O)CNCc2ccc(OC)cc2OC)cc1 (centres unmarked) [Example 6, 2-{4-[3-(2,4-Dimethoxybenzylamino)-2-hydroxypropoxyl]phenyl}-3-(3,4,5-trimethoxyphenyl)acrylic acid methyl ester] | 5.2 |  | 73
13 | COC(=O)/C(=C/c1ccc(F)c(C)c1)c1ccc(OCC(O)CNCCOc2ccccc2OC)cc1 (centres unmarked) [Example 19, 2-{4-[3-(2-Methoxyphenoxyethylamino)-2-hydroxypropoxy]phenyl}-3-(4-fluoro-3-methylphenyl)acrylic acid methyl ester] | 4.9 |  | 15.9

Now from value to compound, other results behind:

Row | GI50 [2] [µM] | SMILES | inhibition at 10 µM [1] [%] | inhibition at 10 µM [3] [%]
14 | 5.1 | COC(=O)/C(=C/c1ccc(OCC(O)CNCc2ccc(OC)cc2OC)cc1)c1ccc(F)cc1 (centres unmarked) [Example 35, 3-{4-[3-(2,4-Dimethoxybenzylamino)-2-hydroxypropoxy]phenyl}-2-(4-fluorophenyl)acrylic acid methyl ester] | 32.7 | 72.7
15 | 9.7 | COC(=O)/C(=C/c1ccc(OCC(O)CNCc2ccc(OC)cc2OC)cc1)c1cccs1 (centres unmarked) [Example 40, 3-{4-[3-(2,4-Dimethoxybenzylamino)-2-hydroxypropoxy]phenyl}-2-(thiophen-2-yl)acrylic acid methyl ester] | 71 | 70.5
16 | 13.1 | COC(=O)/C(=C/c1ccc(F)c(C)c1)c1ccc(OCC(O)CNCc2ccccc2)cc1 (centres unmarked) [Example 21, 2-{4-[3-(Benzylamino)-2-hydroxypropoxy]phenyl}-3-(4-fluoro-3-methylphenyl)acrylic acid methyl ester] |  | 22.8
17 | 2.1 | COC(=O)/C(=C/c1ccc(OCC(O)CNCc2ccccc2)cc1)c1ccccc1 (centres unmarked) [Example 44, 3-{4-[3-(Benzylamino)-2-hydroxypropoxy]phenyl}-2-phenylacrylic acid methyl ester] |  | 7.7
18 | 6.3 | COC(=O)/C(=C/c1ccc(OCC(O)CNCc2ccccc2)cc1)c1ccc(C)cc1 (centres unmarked) [Example 39, 3-{4-[3-(Benzylamino)-2-hydroxypropoxy]phenyl}-2-(4-methylphenyl)acrylic acid methyl ester] |  | 41.8
19 | 18.7 | COC(=O)/C(=C/c1ccc(OCC(O)CNCCOc2ccccc2OC)cc1)c1cccs1 (centres unmarked) [Example 34, 3-{4-[3-(2-Methoxyphenoxyethylamino)-2-hydroxypropoxy]phenyl}-2-(thiophen-2-yl)acrylic acid methyl ester] |  | 41.9
20 | 1.9 | COC(=O)/C(=C/c1ccc(OCC(O)CNCCOc2ccccc2OC)cc1)c1ccc(OC)cc1 (centres unmarked) [Example 29, 3-{4-[3-(2-Methoxyphenoxyethylamino)-2-hydroxypropoxy]phenyl}-2-(4-(methoxy)phenyl)acrylic acid methyl ester] |  | 64.2
21 | 2.6 | COC(=O)/C(=C/c1ccc(OC)cc1OC)c1ccc(OCC(O)CNCCOc2ccccc2OC)cc1 (centres unmarked) [Example 33, 2-{4-[3-(2-Methoxyphenoxyethylamino)-2-hydroxypropoxy]phenyl}-3-(2,4-dimethoxyphenyl)acrylic acid methyl ester] |  | 61.2
22 | 16.8 | COC(=O)/C(=C/c1cc(OC)cc(OC)c1)c1ccc(OCC(O)CNCc2ccc(F)cc2)cc1 (centres unmarked) [Example 20, 2-{4-[3-(4-Fluorobenzylamino)-2-hydroxypropoxy]phenyl}-3-(3,5-dimethoxyphenyl)acrylic acid methyl ester] |  | 0
23 | 27.8 | COC(=O)/C(=C/c1ccccc1)c1ccc(OCC(O)CNCCOc2ccccc2OC)cc1 (centres unmarked) [Example 25, 2-{4-[3-(2-Methoxyphenoxyethylamino)-2-hydroxypropoxy]phenyl}-3-phenylacrylic acid methyl ester] |  | 20.5

Source: patent US20100298402A1, “STILBENE DERIVATIVES AS PSTAT3/IL-6 INHIBITORS” (ORCHID RESEARCH LABORATORIES LIMITED, priority 2007, published 2010)
